Test in all cases: biochemical
What all share (design): KINOMEscan scanMAX active site-directed competition binding assay, percent of control, 468 kinases
What all share (details): competition binding, percent of control

One experiment has as its target T1, GCN2(Kin.Dom.2,S808G) (Homo sapiens, UniProt Q9P2K8, S808G).
T1 construct: gene EIF2AK4; Kin.Dom.2
In a few lines:
(§1)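 KINOMEscan active site-directed competition binding assay against 468 human kinases with 100 μM S-carvone. Binding expressed as % of control, with 35% of control as the inhibition threshold.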

In the next experiment the target is MAP4K4 (Homo sapiens, UniProt O95819). In a few lines:
as §1

The target in the next experiment is T2, PRP4 (Homo sapiens, UniProt Q13523).
T2 construct: gene PRPF4B
In a few lines:
as §1

The next experiment concerns the target ROCK1 (Homo sapiens, UniProt Q13464). In a few lines: as §1
The target in a further experiment is FRK (Homo sapiens, UniProt P42685). In a few lines: as §1
Another experiment concerns the target MARK4 (Homo sapiens, UniProt Q96L34). In a few lines:
as §1

A further experiment deals with T3, TRKC (Homo sapiens, UniProt Q16288).
T3 construct: gene NTRK3
In a few lines: as §1

The target of the next experiment is PIK3CA(E542K) (Homo sapiens, UniProt P42336, E542K). In a few lines: as §1
In experiment [1] the target is T4, RSK1(Kin.Dom.1-N-terminal) (Homo sapiens, UniProt Q15418).
T4 construct: gene RPS6KA1; Kin.Dom.1-N-terminal
In a few lines:
as §1

The target of the next experiment is LATS2 (Homo sapiens, UniProt Q9NRM7). In a few lines:
as §1

The next experiment addresses EPHA5 (Homo sapiens, UniProt P54756). In a few lines:
as §1

For a further experiment, the target named is TESK1 (Homo sapiens, UniProt Q15569). In a few lines:
as §1

The target of another experiment is INSR (Homo sapiens, UniProt P06213). In a few lines:
as §1

The next experiment deals with MAP4K3 (Homo sapiens, UniProt Q8IVH8). In a few lines: as §1
A further experiment addresses MKNK2 (Homo sapiens, UniProt Q9HBH9). In a few lines:
as §1

The target in the next experiment is PRKD2 (Homo sapiens, UniProt Q9BZL6). In a few lines:
as §1

Another experiment concerns the target TBK1 (Homo sapiens, UniProt Q9UHD2). In a few lines: as §1
Another experiment deals with CSF1R (Homo sapiens, UniProt P07333). In a few lines: as §1
The target of another experiment is GRK3 (Homo sapiens, UniProt P35626). In a few lines:
as §1

The target of another experiment is AAK1 (Homo sapiens, UniProt Q2M2I8). In a few lines:
as §1

Another experiment concerns the target MARK1 (Homo sapiens, UniProt Q9P0L2). In a few lines: as §1

TBK1, sequence (Q9UHD2 whole entry): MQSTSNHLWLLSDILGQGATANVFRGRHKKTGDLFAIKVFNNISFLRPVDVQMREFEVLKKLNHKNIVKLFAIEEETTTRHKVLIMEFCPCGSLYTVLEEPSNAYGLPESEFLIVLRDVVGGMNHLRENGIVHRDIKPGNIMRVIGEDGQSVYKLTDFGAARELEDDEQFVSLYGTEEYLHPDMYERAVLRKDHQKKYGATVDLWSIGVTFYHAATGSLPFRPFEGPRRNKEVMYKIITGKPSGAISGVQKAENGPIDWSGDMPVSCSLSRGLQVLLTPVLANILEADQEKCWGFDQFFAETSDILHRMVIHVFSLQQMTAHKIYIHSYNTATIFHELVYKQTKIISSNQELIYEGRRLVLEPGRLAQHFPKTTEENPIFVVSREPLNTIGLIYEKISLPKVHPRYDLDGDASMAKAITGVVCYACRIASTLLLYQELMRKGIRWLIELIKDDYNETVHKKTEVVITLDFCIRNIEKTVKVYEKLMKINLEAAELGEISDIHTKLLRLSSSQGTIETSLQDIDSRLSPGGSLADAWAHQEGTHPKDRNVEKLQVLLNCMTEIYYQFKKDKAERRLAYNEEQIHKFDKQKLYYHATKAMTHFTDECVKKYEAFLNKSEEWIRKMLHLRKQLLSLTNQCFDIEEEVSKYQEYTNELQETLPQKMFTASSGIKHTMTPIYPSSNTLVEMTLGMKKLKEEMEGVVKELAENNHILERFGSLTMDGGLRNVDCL
PIK3CA(E542K), sequence (P42336 whole entry E542K): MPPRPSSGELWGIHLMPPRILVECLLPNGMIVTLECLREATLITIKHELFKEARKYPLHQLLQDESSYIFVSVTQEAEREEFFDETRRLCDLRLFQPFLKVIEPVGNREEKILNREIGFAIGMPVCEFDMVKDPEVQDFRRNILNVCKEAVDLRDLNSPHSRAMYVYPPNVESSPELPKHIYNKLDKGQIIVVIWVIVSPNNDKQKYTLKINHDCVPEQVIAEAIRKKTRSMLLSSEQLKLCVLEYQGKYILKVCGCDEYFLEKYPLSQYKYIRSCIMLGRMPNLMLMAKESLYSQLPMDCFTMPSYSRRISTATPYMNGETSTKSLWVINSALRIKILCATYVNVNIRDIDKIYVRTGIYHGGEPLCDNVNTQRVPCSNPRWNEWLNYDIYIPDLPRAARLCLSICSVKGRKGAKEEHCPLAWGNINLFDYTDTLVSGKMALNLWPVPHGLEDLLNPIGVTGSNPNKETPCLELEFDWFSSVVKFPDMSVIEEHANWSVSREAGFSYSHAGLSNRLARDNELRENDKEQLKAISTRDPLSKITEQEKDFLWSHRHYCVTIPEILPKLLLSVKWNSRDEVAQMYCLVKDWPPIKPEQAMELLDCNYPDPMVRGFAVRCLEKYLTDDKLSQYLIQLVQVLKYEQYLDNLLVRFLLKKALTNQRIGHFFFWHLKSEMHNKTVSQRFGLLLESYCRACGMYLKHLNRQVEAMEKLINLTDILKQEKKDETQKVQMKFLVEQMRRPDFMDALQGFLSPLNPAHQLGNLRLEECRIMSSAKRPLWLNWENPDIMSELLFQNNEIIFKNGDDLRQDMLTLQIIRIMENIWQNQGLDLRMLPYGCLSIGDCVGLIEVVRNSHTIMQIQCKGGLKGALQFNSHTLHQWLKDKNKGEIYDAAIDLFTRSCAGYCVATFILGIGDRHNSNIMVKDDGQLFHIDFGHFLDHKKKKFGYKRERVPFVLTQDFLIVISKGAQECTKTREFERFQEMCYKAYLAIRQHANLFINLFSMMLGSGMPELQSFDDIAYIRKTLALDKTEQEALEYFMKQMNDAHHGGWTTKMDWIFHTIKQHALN
EPHA5, sequence (P54756 whole entry): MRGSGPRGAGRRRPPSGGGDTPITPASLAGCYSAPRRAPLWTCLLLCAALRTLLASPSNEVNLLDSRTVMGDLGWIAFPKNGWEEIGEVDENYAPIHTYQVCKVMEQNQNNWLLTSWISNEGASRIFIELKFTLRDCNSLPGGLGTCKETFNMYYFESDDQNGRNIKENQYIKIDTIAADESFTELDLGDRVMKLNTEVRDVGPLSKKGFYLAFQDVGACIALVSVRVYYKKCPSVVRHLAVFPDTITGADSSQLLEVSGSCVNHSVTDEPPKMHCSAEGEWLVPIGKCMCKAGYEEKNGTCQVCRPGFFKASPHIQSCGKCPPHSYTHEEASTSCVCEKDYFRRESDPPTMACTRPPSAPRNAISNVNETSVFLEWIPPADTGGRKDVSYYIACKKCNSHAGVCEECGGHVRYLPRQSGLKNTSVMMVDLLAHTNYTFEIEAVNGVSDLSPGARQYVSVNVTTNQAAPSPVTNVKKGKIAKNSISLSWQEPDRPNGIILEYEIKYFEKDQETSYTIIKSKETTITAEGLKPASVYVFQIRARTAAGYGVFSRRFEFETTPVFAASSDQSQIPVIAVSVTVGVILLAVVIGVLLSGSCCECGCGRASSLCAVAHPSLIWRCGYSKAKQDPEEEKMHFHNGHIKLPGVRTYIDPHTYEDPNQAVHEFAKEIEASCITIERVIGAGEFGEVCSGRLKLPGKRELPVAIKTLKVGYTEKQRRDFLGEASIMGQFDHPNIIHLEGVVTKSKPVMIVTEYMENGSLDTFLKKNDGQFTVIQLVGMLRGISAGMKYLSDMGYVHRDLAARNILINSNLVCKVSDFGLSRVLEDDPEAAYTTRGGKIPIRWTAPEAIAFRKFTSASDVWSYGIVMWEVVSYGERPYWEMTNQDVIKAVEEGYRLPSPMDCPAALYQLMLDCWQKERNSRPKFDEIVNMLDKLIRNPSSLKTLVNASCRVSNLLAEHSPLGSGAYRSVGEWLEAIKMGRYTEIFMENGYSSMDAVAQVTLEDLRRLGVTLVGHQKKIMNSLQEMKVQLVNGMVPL
FRK, sequence (P42685 whole entry): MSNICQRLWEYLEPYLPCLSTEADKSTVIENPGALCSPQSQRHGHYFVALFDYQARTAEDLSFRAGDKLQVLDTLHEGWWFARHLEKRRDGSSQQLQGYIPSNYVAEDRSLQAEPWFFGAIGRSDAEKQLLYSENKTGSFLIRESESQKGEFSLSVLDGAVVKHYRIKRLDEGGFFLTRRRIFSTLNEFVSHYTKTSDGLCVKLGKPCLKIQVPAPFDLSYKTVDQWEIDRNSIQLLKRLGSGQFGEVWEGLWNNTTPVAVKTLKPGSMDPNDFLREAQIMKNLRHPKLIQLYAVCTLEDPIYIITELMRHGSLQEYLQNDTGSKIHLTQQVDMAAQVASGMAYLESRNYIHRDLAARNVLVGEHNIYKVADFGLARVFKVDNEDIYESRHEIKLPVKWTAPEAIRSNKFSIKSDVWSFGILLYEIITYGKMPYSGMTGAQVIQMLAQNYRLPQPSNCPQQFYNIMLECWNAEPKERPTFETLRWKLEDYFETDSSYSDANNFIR
MAP4K4, sequence (O95819 whole entry): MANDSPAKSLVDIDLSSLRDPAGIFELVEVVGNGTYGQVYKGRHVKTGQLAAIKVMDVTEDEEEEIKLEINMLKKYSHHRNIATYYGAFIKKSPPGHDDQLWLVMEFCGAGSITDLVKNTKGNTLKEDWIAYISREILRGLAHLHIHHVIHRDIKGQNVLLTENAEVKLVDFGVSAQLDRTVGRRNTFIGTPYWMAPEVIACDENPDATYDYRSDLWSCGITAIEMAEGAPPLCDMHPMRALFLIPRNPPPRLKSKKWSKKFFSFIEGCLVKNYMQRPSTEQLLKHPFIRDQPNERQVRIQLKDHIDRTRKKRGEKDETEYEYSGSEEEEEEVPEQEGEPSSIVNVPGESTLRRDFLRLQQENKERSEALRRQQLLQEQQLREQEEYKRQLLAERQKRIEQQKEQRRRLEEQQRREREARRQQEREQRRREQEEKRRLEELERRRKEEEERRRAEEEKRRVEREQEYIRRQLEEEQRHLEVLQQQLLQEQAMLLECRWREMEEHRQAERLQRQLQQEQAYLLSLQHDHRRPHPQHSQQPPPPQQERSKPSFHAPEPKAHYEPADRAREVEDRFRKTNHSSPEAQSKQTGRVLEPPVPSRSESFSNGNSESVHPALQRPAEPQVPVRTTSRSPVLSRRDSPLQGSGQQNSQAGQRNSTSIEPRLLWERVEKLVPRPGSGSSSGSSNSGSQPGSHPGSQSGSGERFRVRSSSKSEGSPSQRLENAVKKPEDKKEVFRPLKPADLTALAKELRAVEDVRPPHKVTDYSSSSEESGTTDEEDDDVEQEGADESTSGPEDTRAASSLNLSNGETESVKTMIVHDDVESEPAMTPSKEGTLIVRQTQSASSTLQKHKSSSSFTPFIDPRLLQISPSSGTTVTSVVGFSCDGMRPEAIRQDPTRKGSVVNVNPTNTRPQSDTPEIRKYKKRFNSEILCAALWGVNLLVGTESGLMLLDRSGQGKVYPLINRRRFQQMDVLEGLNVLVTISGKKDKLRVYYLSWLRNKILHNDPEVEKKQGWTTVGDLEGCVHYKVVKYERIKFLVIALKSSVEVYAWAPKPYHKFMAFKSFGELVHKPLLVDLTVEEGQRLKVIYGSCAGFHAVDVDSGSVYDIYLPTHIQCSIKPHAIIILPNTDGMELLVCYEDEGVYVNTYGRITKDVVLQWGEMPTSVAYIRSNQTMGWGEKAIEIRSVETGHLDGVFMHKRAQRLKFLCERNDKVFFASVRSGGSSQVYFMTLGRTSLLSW
MKNK2, sequence (Q9HBH9 whole entry): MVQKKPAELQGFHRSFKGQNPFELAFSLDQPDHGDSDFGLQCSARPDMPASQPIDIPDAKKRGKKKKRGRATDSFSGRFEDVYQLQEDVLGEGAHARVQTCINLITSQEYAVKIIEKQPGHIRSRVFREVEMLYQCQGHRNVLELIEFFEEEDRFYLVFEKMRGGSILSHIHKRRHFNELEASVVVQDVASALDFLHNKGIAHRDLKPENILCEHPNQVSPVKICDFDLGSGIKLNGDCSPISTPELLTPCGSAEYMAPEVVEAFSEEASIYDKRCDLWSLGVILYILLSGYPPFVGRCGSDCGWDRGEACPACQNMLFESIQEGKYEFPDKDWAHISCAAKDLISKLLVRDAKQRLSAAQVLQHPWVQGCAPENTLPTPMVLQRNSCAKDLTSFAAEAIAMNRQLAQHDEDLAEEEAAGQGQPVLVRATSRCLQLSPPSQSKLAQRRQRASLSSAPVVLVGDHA

`C=C(C)[C@H]1CC=C(C)C(=O)C1` [S-carvone]: the remaining binding at 100 µM stood at 63% on GCN2(Kin.Dom.2,S808G); 85% at MAP4K4; 62% on PRP4; 100% at ROCK1; 83% on FRK; 73% on MARK4. The remaining binding at 100 µM was determined as 82% at TRKC; 70% at PIK3CA(E542K); 91% in experiment [1]; 45% at LATS2; 61% on EPHA5; 79% on TESK1. Also, the remaining binding at 100 µM was determined as 68% on INSR; 90% at MAP4K3; 82% on MKNK2; 100% at PRKD2; 64% on TBK1; 86% on CSF1R. The figures for the remaining binding at 100 µM on GRK3, at AAK1 and at MARK1 were 58%, 77% and 85%, respectively.

Source of the values: PMC10174618, “Monoterpenoid aryl hydrocarbon receptor allosteric antagonists protect against ultraviolet skin damage in female mice” (Nature Communications, 2023).
